For 61 compounds, IC50 results are on record in PubChem BioAssay AID489023 (Sanford-Burnham Center for Chemical Genomics, 2010).

Activity calls are given as the source filed them. The rule behind the calls is not given here.

By IC50 is commonly meant the concentration that gives 50% inhibition.

The assay concerns 697B cells, BCR-induced NF-kB luciferase reporter luminescence. In words: inhibitors of BCR-induced NF-kB activation, dose response, 697B cells, luciferase luminescence (AID 489023).
As for `CCc1sc(C(=O)Nc2cccc(-n3cnnn3)c2)cc1C`, the IC50 was > 80 µM (inactive).

For `CN(C)C(=O)CCc1nc(-c2ccc(C(C)(C)C)cc2)no1`, the 50% inhibitory concentration (IC50) was 18.8 µM.

In the case of `CCCOc1ccc(NC(=O)C(=O)NCCCn2ccnc2)cc1`, the 50% inhibitory concentration (IC50) is 14.2 µM.

As for `COc1ccccc1/C=C1\SC(=S)N(CCC(=O)NC2=NCCS2)C1=O`, the IC50 was > 80 µM (inactive). Next, `Cc1c(CCC(=O)NCCCn2ccnc2)c(=O)oc2c(C)c3oc4c(c3cc12)CCCC4`: 30.4 µM (inactive); `Cc1cc(OC(=O)c2ccccc2Cl)cc(=O)n1C`: > 80 µM (inactive); `COc1ccc(/C=C2\SC(=S)N(CCC(=O)Nc3cccc(O)c3)C2=O)cc1`: > 80 µM (inactive). The value for `NNC(=O)COc1ccc(-c2nccc(-c3ccc(F)cc3)n2)cc1` was 4.92 µM. The value for `COc1ccc(-n2nnnc2S(=O)(=O)CC(=O)N2CCCCC2)cc1` was 0.79 µM; that for `COc1ccc(-c2ccc(N(C)C)cc2)cc1[C@H]1[C@H]2C=CC[C@@H](C)[C@@H]2C(=O)N1Cc1ccccc1` was > 80 µM (inactive); that for `C/C=C(/C)C(=O)OC1Cc2c(ccc3ccc(=O)oc23)OC1(C)C` (stereo unspecified) was > 80 µM (inactive).

Take `COc1ccc(/C=C2/SC(=S)N(CCCC(=O)Nc3cccc(O)c3)C2=O)cc1`: the IC50 was 3.88 µM. The value for `Cc1cc(C)cc(N2C(=O)NC(=O)/C(=C\c3cccn3-c3ccccc3)C2=O)c1` was 36.4 µM (inactive); that for `COC(=O)c1cc(NC(=O)Nc2cc(OC)ccc2OC)cc(C(=O)OC)c1` was > 80 µM (inactive); that for `CCCCOc1ccc(NC(=O)C(=O)NCCCn2ccnc2)cc1` was 10.9 µM.

In the case of `CCCN1C(=O)/C(=C/c2c(N3CCNC(=O)C3CC(=O)OCC)nc3c(C)cccn3c2=O)SC1=S` (stereo unspecified), the 50% inhibitory concentration (IC50) was 5.89 µM. Next, `Cn1nc(-c2ccc(N3CCOCC3)c(NS(=O)(=O)c3ccccc3)c2)c2ccccc2c1=O`: > 80 µM (inactive). As for `Cc1ccc(C)c(-n2nnnc2Sc2nnnn2-c2ccccc2)c1`, the concentration for half-maximal inhibition (IC50) is 1.32 µM. Next, `CCCCCCn1c(-c2ccco2)nc2oc3cc(OC)ccc3c(=O)c2c1=O`: > 80 µM (inactive).

Consider `Cc1cc(C)c(CN2CCN(C(=O)Cn3cnc4c(NCc5ccccc5)ncnc43)CC2)c(C)c1`, for which the IC50 is 52.7 µM (inactive).

Regarding `CC(C)(C)C(=O)/C(=C/c1ccncc1)n1cncn1`, the half-inhibitory concentration (IC50) is 3.13 µM. The value for `CCN1C(=O)c2cccc3c(S(=O)(=O)NCC4CCCO4)ccc1c23` (stereo unspecified) was 69.7 µM (inactive). Next, `O=C(CCCN1C(=O)S/C(=C\C=C\c2ccccc2)C1=O)Nc1ccc(O)cc1`: 2.99 µM; `C(=N\Nc1nc(Nc2ccccc2)nc(Nc2ccccc2)n1)/c1cccnc1`: > 80 µM (inactive).

With `Cn1nc(-c2ccc(Cl)cc2)c2cc(C(=O)N3CCCC3)sc21`, the IC50 is > 80 µM (inactive). Next, `COc1cc2c3c(c1)c(N=NC(N)=S)c(O)n3C(C)(C)C=C2C`: > 80 µM (inactive).

Take `COc1cc(/C=N/Nc2nc(Nc3ccccc3)nc(N3CCOCC3)n2)ccc1OC(=O)c1ccco1`: the IC50 was 5.16 µM. Consider `N=c1c2c(n(Cc3cccc(Cl)c3)c3c1CCC3)CCCC2`, for which the IC50 was 59.9 µM (inactive). Next, `CN1C(=O)CC(c2ccco2)Sc2ccccc21` (stereo unspecified): > 80 µM (inactive); `Cc1c(CC(=O)NCCCC(=O)O)c(=O)oc2cc3c(cc12)CCC(C)(C)O3`: 6.82 µM.

Consider `CC1Cc2ccccc2N1S(=O)(=O)c1cnc(Cl)c(Br)c1` (stereo unspecified), for which the IC50 was 72.9 µM (inactive). The value for `CC(C)N1C(=O)S/C(=C/c2ccc3c(c2)n(C)c(=O)n3C)C1=O` was > 80 µM (inactive); that for `NC(=O)C1CCN(C(=O)COc2ccc3ccccc3c2Br)CC1` was 39.4 µM (inactive). Next, `Cc1csc(NC(=O)CCc2c(C)nc3cc(-c4ccc(Cl)cc4)nn3c2C)n1`: 4.77 µM.

Take `OCCN1CCN(C(=S)c2ccc(-c3ccccc3)cc2)CC1`: the IC50 was 5.72 µM. Next, `CCOc1ccc(-c2nnc(SCC(=O)NC3CC3)o2)cc1`: 62 µM (inactive); `Cc1ccc(/C=C2\SC(=S)N(CCCC(=O)NNC(=O)c3ccccc3O)C2=O)cc1`: 1.26 µM; `Cc1ccc(-c2nc(C(=O)NCC3CCCO3)cc3c2[nH]c2ccccc23)cc1` (stereo unspecified): 12.8 µM.

As for `COc1ccc(NC(=O)c2nnn(Cc3cccc(F)c3)c2N)c(OC)c1`, the IC50 was > 80 µM (inactive). Next, `CCC(=O)N1c2ccccc2[C@@H](N(C(C)=O)c2ccccc2)C[C@H]1C`: 58.2 µM (inactive); `Cc1c(CCO)c(=O)oc2n[nH]c(-c3ccccc3)c12`: 13.8 µM; `CCOC(=O)c1cc2c(=O)n3ccccc3nc2n(CC(C)C)c1=NC(=O)c1c(-c2c(F)cccc2Cl)noc1C`: > 80 µM (inactive). In the case of `CCOc1ccc(-c2cc(CCCC(=O)NCc3ccc(C)cc3)no2)cc1`, the IC50 was > 80 µM (inactive). For the compound `CC(C)c1ccc(/C=C2\SC(=S)N(CCC(=O)N3CCCCC3CCO)C2=O)cc1` (stereo unspecified), the IC50 is 1.63 µM. The value for `CC(=O)Nc1ccc(Nc2nc(-c3sc(NC(C)=O)nc3C)cs2)cc1` was 2.12 µM; that for `COc1ccc(-c2ccc(F)cc2)cc1[C@H]1[C@H]2C=CC[C@@H](C)[C@@H]2C(=O)N1Cc1ccccc1` was > 80 µM (inactive); that for `COc1ccc(OC)c(NC(=O)c2[nH]c(C)c(C(C)=O)c2C)c1` was > 80 µM (inactive). For `Cc1nn(C(C)(C)C)c(C)c1/C=N/OC(=O)Nc1ccc(Cl)c(Cl)c1`, the half-inhibitory concentration (IC50) was 0.74 µM.

Take `CCN(CC(=O)Nc1c(F)cccc1F)C(=O)c1cc(S(=O)(=O)N(C)C)ccc1N1CCCC1`: the IC50 was 12.2 µM.

Turning to `O=C(Oc1cccc(/C=N/Nc2nc(N3CCOCC3)nc(N3CCOCC3)n2)c1)c1ccco1`, the IC50 was 18.4 µM. The value for `ClCc1nnc(-c2ccccc2)o1` was 12.7 µM; that for `Cc1nc2cc(-c3ccccc3)nn2c(C)c1CCC(=O)N1CCC2(CC1)OCCO2` was > 80 µM (inactive); that for `CCN(CC)CCOC(=O)c1ccc(NC(=O)COc2cc(=O)n(CC)c3ccccc23)cc1` was > 80 µM (inactive). Next, `C[C@H]1CCC/C=C/C2C[C@H](O)CC2[C@H](O)/C=C/C(=O)O1` (stereo partly specified): > 80 µM (inactive). For the compound `CC(=O)C1=NN(c2ccccc2)C(c2cccs2)N1c1ccc(N(C)C)cc1` (stereo unspecified), the IC50 was 31.7 µM (inactive).

Take `CCOC(=O)Cc1csc(NC(=S)NC(=O)c2ccc(C)cc2)n1`: the IC50 is 5.88 µM.

For the compound `Cn1c(=NC(=O)CCl)sc2ccccc21`, the IC50 is 0.59 µM. On to `Cn1c(=O)cc(OCCCC(=O)N2CCCCC2)c2ccccc21`, for which the IC50 is > 80 µM (inactive). The value for `CCCNC(=O)CSCc1nc(-c2ccc(SC)cc2)oc1C` was 31.6 µM (inactive); that for `COc1cc(-c2nc3ccc(N4CCN(C)CC4)cc3[nH]2)cc(OC)c1OC` was > 80 µM (inactive); that for `COc1cc(NC(=O)c2ccco2)c(OC)cc1NC(=O)c1cc(OC)c(OC)c(OC)c1` was 24.9 µM (inactive).
